Residue numbers refer to the chain shown, from its start. Read-outs that look alike come from different tables or passages of the source.
Legend:
Format in all cases: cell-based
[1] = target: T1, wild-type Androgen Receptor (AR-wt) (Homo sapiens, UniProt P10275); test: LNCaP-AR-wt AG reporter assay (ARE firefly luciferase, agonist mode); conditions: for Emax: read-out: LNCaP-AR-wt AG MAX % Stim
T1 construct: expressed in transfected cells; host or cells: LNCaP (LNCaP AR (cs))
T1 sequence (P10275 1-920): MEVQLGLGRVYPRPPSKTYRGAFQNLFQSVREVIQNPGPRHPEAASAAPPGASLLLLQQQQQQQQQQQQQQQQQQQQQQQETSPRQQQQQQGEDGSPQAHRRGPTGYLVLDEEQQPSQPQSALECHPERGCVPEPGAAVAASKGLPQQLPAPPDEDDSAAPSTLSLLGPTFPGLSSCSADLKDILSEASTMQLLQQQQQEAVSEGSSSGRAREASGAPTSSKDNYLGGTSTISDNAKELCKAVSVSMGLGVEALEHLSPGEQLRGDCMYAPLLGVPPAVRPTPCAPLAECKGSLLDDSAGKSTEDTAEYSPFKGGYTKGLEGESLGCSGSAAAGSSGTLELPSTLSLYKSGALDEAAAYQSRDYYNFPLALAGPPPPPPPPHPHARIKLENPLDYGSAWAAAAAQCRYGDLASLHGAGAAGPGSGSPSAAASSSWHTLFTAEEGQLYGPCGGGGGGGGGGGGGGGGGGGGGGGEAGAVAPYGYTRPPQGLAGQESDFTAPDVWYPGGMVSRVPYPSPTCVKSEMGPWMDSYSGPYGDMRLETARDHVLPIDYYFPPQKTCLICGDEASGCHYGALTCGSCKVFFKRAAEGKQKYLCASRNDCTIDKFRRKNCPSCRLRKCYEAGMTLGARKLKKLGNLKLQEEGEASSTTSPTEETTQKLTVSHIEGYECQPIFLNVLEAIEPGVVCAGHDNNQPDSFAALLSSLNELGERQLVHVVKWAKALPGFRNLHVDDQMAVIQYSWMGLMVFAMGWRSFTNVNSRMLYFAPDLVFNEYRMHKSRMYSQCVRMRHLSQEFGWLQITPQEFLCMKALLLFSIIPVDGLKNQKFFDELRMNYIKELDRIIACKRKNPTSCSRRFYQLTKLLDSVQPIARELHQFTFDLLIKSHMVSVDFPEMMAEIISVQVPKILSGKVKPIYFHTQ
Procedure, shortened: (§1)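 Read-out is luciferase luminescence taken 1 h after Steady-Glo addition, following 20-24 h compound exposure at 37 °C in LNCaP pools stably carrying wild-type or F876L AR. Cells were grown in charcoal-stripped serum. Antagonist wells received agonist at 400 pM (WT) or 600 pM (F876L).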

[2] = target: T2, F876L mutant Androgen Receptor (AR-F876L) (Homo sapiens, UniProt P10275, F877L); test: LNCaP-AR-F876L ANT reporter assay (ARE firefly luciferase, antagonist mode); conditions: for Emax: read-out: LNCaP-AR-F876L ANT MAX % Inh; for IC50: read-out: LNCaP-AR-F876L ANT pIC50 (converted)
T2 construct: expressed in transfected cells; host or cells: LNCaP (LNCaP F876L)
T2 sequence (P10275 1-920 F877L): T1 sequence (P10275 1-920) with F877L
Procedure, shortened: as §1

[3] = target: T1, wild-type Androgen Receptor (AR-wt); test: LNCaP-AR-wt ANT reporter assay (ARE firefly luciferase, antagonist mode); conditions: for IC50: antagonist mode, 400 pM R-1881 challenge, −Log10(IC50 [Molar]), read-out: LNCaP-AR-wt ANT pIC50 (converted); for Emax: read-out: LNCaP-AR-wt ANT MAX % Inh
Procedure, shortened: as §1

[4] = target: T2, F876L mutant Androgen Receptor (AR-F876L); test: LNCaP-AR-F876L AG reporter assay (ARE firefly luciferase, agonist mode); conditions: for Emax: read-out: LNCaP-AR-F876L AG MAX % Stim
Procedure, shortened: as §1

[5] = agonist mode, −Log10(EC50 [Molar]), read-out: LNCaP-AR-wt AG pEC50 (converted)
[6] = maximum % stimulation (agonist response) over tested concentration range
[7] = maximum % inhibition of R1881 control response over tested concentration range
[8] = agonist mode, −Log10(EC50 [Molar]), read-out: LNCaP-AR-F876L AG pEC50 (converted)

Which EC50 [1] does the source give for `N#Cc1ncc(N2C(=O)C3(CCC3)N(c3ccc(C(=O)NCCCN4CCOCC4)c(F)c3)C2=S)cc1C(F)(F)F` [Cpd 72, 4-[6-[6-cyano-5-(trifluoromethyl)-3-pyridyl]-5-oxo-7-thioxo-6,8-diazaspiro[3.4]octan-8-yl]-2-fluoro-N-(3-morpholinopropyl)benzamide] here?
Its EC50 is greater than 15100 nM.

And the Emax [1]?
The Emax was 0.3%.

What about the Emax [2] of the same molecule?
The Emax was 101%.

What about the IC50 [2] of the same molecule?
Its IC50 is 102 nM.

And the IC50 [3]?
The IC50 was 251 nM.

What about the Emax [3] of the same molecule?
The Emax was 102%.

What about the EC50 [4] of the same molecule?
Its EC50 is greater than 15100 nM.

What about the Emax [4] of the same molecule?
The Emax was 0.6%.

With `Cc1cc(N2C(=O)C3(CCC3)N(c3ccc(OC4CCN(C)CC4)c(F)c3)C2=S)cnc1C#N` [Cpd 116, 5-[8-[3-fluoro-4-[(1-methyl-4-piperidyl)oxy]phenyl]-5-oxo-7-thioxo-6,8-diazaspiro[3.4]octan-6-yl]-3-methyl-pyridine-2-carbonitrile] as the molecule, how does the EC50 [1, 5] read?
The EC50 was greater than 15100 nM.

What about the Emax [1, 6] of the same molecule?
The Emax was 1.1%.

What about the Emax [2, 7] of the same molecule?
Its Emax is 98.6%.

And the IC50 [2]?
The IC50 was 631 nM.

What about the IC50 [3] of the same molecule?
Its IC50 is 2570 nM.

And the Emax [3, 7]?
The Emax was 95.3%.

What about the EC50 [4, 8] of the same molecule?
The EC50 was greater than 15100 nM.

What about the Emax [4, 6] of the same molecule?
The Emax was 3.5%.

`Cc1ccc(NC(=O)c2ccc(N3C(=S)N(c4cnc(C#N)c(C)c4)C(=O)C34CCC4)cc2F)cn1` [Cpd 75, 4-[6-(6-cyano-5-methyl-3-pyridyl)-5-oxo-7-thioxo-6,8-diazaspiro[3.4]octan-8-yl]-2-fluoro-N-(6-methyl-3-pyridyl)benzamide] was tested. Which EC50 [1] did it give?
The EC50 was greater than 15100 nM.

And the Emax [1]?
Its Emax is 0.8%.

And the Emax [2]?
The Emax was 100%.

And the IC50 [2]?
Its IC50 is 145 nM.

What about the IC50 [3] of the same molecule?
The IC50 was 562 nM.

And the Emax [3]?
The Emax was 101%.

And the EC50 [4]?
The EC50 was greater than 15100 nM.

And the Emax [4]?
Its Emax is 0.8%.

With `N#Cc1ncc(N2C(=O)C3(CCC3)N(c3ccc(OC4CCN(CCO)CC4)cc3)C2=S)cc1C(F)(F)F` [Cpd 51, 5-[8-[4-[[1-(2-hydroxyethyl)-4-piperidyl]oxy]phenyl]-5-oxo-7-thioxo-6,8-diazaspiro[3.4]octan-6-yl]-3-(trifluoromethyl)pyridine-2-carbonitrile] as the molecule, how does the EC50 [1] read?
Its EC50 is greater than 15100 nM.

And the Emax [1]?
The Emax was 0.8%.

What about the Emax [2] of the same molecule?
The Emax was 101%.

And the IC50 [2]?
Its IC50 is 200 nM.

And the IC50 [3]?
The IC50 was 389 nM.

What about the Emax [3] of the same molecule?
The Emax was 99%.

What about the EC50 [4] of the same molecule?
The EC50 was greater than 15100 nM.

And the Emax [4]?
Its Emax is 0.2%.

What does the source list for `Cc1cc(N2C(=O)C3(CCC3)N(c3ccc(-c4cccnc4C)cc3)C2=S)cnc1C#N` [Cpd 119, 3-methyl-5-[8-[4-(2-methyl-3-pyridyl)phenyl]-5-oxo-7-thioxo-6,8-diazaspiro[3.4]octan-6-yl]pyridine-2-carbonitrile]?
EC50 [1, 5]: > 15100 nM; Emax [1, 6]: 2.2%; Emax [2, 7]: 96%; IC50 [2]: 158 nM; IC50 [3]: 112 nM; Emax [3, 7]: 97.7%; EC50 [4, 8]: > 15100 nM; Emax [4, 6]: 3.9%

`N#Cc1ncc(N2C(=O)C3(CCC3)N(c3ccc(F)cc3)C2=S)cc1C(F)(F)F` [Cpd 102, 5-[8-(4-fluorophenyl)-5-oxo-7-thioxo-6,8-diazaspiro[3.4]octan-6-yl]-3-(trifluoromethyl)pyridine-2-carbonitrile] was tested. Which EC50 [1, 5] did it give?
The EC50 was greater than 15100 nM.

And the Emax [1, 6]?
The Emax was 0.9%.

What about the Emax [2, 7] of the same molecule?
Its Emax is 99.6%.

And the IC50 [2]?
The IC50 was 501 nM.

And the IC50 [3]?
Its IC50 is 646 nM.

What about the Emax [3, 7] of the same molecule?
The Emax was 101%.

And the EC50 [4, 8]?
Its EC50 is greater than 15100 nM.

And the Emax [4, 6]?
Its Emax is 1.9%.

Which EC50 [1, 5] does the source give for `N#Cc1ncc(N2C(=O)C3(CCC3)N(c3ccc(C(=O)NCc4cccc(Cl)c4)c(F)c3)C2=S)cc1C(F)(F)F` [Cpd 95, N-[(3-chlorophenyl)methyl]-4-[6-[6-cyano-5-(trifluoromethyl)-3-pyridyl]-5-oxo-7-thioxo-6,8-diazaspiro[3.4]octan-8-yl]-2-fluoro-benzamide] here?
Its EC50 is greater than 15100 nM.

What about the Emax [1, 6] of the same molecule?
Its Emax is 0.2%.

And the Emax [2, 7]?
Its Emax is 92.3%.

And the IC50 [2]?
The IC50 was 1050 nM.

And the IC50 [3]?
Its IC50 is 794 nM.

What about the Emax [3, 7] of the same molecule?
Its Emax is 96.1%.

What about the EC50 [4, 8] of the same molecule?
Its EC50 is greater than 15100 nM.

And the Emax [4, 6]?
Its Emax is 1.5%.

`CNC(=O)c1ccc(N2C(=S)N(c3cnc(C#N)c(C)c3)C(=O)C23CCC3)cc1F` [Cpd 16, 4-[6-(6-cyano-5-methyl-3-pyridyl)-5-oxo-7-thioxo-6,8-diazaspiro[3.4]octan-8-yl]-2-fluoro-N-methyl-benzamide] was tested. Which EC50 [1, 5] did it give?
The EC50 was greater than 15100 nM.

And the Emax [1, 6]?
The Emax was 0.3%.

And the Emax [2, 7]?
Its Emax is 98.7%.

What about the IC50 [2] of the same molecule?
Its IC50 is 269 nM.

And the IC50 [3]?
The IC50 was 631 nM.

And the Emax [3, 7]?
Its Emax is 99.2%.

What about the EC50 [4, 8] of the same molecule?
The EC50 was greater than 15100 nM.

And the Emax [4, 6]?
Its Emax is 0%.

What does the source list for `Cc1cc(N2C(=O)C3(CCC3)N(c3ccc(OCCc4ccccn4)c(F)c3)C2=S)cnc1C#N` [Cpd 32, 5-[8-[3-fluoro-4-[2-(2-pyridyl)ethoxy]phenyl]-5-oxo-7-thioxo-6,8-diazaspiro[3.4]octan-6-yl]-3-methyl-pyridine-2-carbonitrile]?
EC50 [1, 5]: > 15100 nM; Emax [1, 6]: 0.7%; Emax [2, 7]: 101%; IC50 [2]: 282 nM; IC50 [3]: 490 nM; Emax [3, 7]: 102%; EC50 [4, 8]: > 15100 nM; Emax [4, 6]: 0.1%

Which results are given for `N#Cc1ncc(N2C(=O)C3(CCC3)N(c3ccc(C(N)=O)c(F)c3)C2=S)cc1C(F)(F)F` [Cpd 80, 4-[6-[6-cyano-5-(trifluoromethyl)-3-pyridyl]-5-oxo-7-thioxo-6,8-diazaspiro[3.4]octan-8-yl]-2-fluoro-benzamide]?
EC50 [1, 5]: > 15100 nM; Emax [1, 6]: 0.4%; Emax [2, 7]: 95.4%; IC50 [2]: 427 nM; IC50 [3]: 891 nM; Emax [3, 7]: 100%; EC50 [4, 8]: > 15100 nM; Emax [4, 6]: 1.2%

`N#Cc1ncc(N2C(=O)C3(CCC3)N(c3ccc(OCCCN4CCCC4)c(F)c3)C2=S)cc1C(F)(F)F` [Cpd 55, 5-[8-[3-fluoro-4-(3-pyrrolidin-1-ylpropoxy)phenyl]-5-oxo-7-thioxo-6,8-diazaspiro[3.4]octan-6-yl]-3-(trifluoromethyl)pyridine-2-carbonitrile] was tested. Which EC50 [1] did it give?
The EC50 was greater than 15100 nM.

And the Emax [1]?
The Emax was 0.7%.

And the Emax [2]?
Its Emax is 100%.

And the IC50 [2]?
Its IC50 is 316 nM.

And the IC50 [3]?
The IC50 was 813 nM.

And the Emax [3]?
The Emax was 101%.

What about the EC50 [4] of the same molecule?
Its EC50 is greater than 15100 nM.

What about the Emax [4] of the same molecule?
The Emax was 0.6%.

With `N#Cc1ncc(N2C(=O)C3(CCC3)N(c3cccc(Oc4ccccc4)c3)C2=S)cc1C(F)(F)F` [Cpd 20, 5-[5-oxo-8-(3-phenoxyphenyl)-7-thioxo-6,8-diazaspiro[3.4]octan-6-yl]-3-(trifluoromethyl)pyridine-2-carbonitrile] as the molecule, how does the EC50 [1, 5] read?
The EC50 was greater than 15100 nM.

What about the Emax [1, 6] of the same molecule?
The Emax was 1.3%.

What about the Emax [2, 7] of the same molecule?
The Emax was 95.4%.

What about the IC50 [2] of the same molecule?
Its IC50 is 977 nM.

What about the IC50 [3] of the same molecule?
The IC50 was 1320 nM.

What about the Emax [3, 7] of the same molecule?
Its Emax is 90%.

What about the EC50 [4, 8] of the same molecule?
The EC50 was greater than 15100 nM.

What about the Emax [4, 6] of the same molecule?
Its Emax is 0.2%.
